{"source": "the supplement of paper PMC11208160"}
{"test": "recombinant barcode read abundance after kanamycin selection (control-corrected) (log10(CPM+1)); higher = more efficient recombination; sequences stand for … in AGTGCAGAGAAAATCGGCCAGTTTTCTCTGCCTGCAGTCCGCATGCCGT…AGATTTATGCAGCGGACTGCCTTTCTCCCAAAGTGATAAACCGGACAGTATCATGGACCGGTTTTCCCGGTAATCCGTATTTGCAAGGTTGGTTTCACT; site = the 11-nt target", "description": "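Pooled E. coli target-specificity screen for the IS621 bridge recombinase. Each library plasmid pairs an 11-nt target (CT core) with a bridge RNA whose target-binding loop (9-nt LTG + 4-nt RTG) is reprogrammed; the rest of the 177-nt WT IS621 bridge RNA scaffold is fixed. The plasmid is co-electroporated with a WT donor plasmid; recombinase is induced with 0.1 mM IPTG and recombinants are selected on kanamycin. Recombinant barcodes are sequenced, converted to CPM, averaged over two biological replicates and corrected by the unselected control CPM. Molecule = full bridge RNA written as DNA: LTG = specificity nt 1-9, RTG = reverse complement of specificity nt 8-11, in the WT scaffold.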"}
{"sequence": "ACCGGGACTTGGGTTCTAACCTGTTGCCT (site ACCGGGACTAG)", "recombinant barcode read abundance (log10)": 1.14}
{"sequence": "ACCGGGACTTGGGTTCTAACCTGTTGCCT (site ACCGTGACTAG)", "recombinant barcode read abundance (log10)": 0}
{"sequence": "ACCGGTACTTGGGTTCTAACCTGTTGCCT (site ACCAGTACTAG)", "recombinant barcode read abundance (log10)": 0.408}
{"sequence": "ACCGGTACTTGGGTTCTAACCTGTTGCCT (site ACCCGTACTAG)", "recombinant barcode read abundance (log10)": 0.014}
{"sequence": "ACCGGTACTTGGGTTCTAACCTGTTGCCT (site ACCGGTACTAG)", "recombinant barcode read abundance (log10)": 0.508}
{"sequence": "ACCGGTACTTGGGTTCTAACCTGTTGCCT (site ACCTGTACTAG)", "recombinant barcode read abundance (log10)": 0.0135}
{"sequence": "ACCTAACCTTGGGTTCTAACCTGTTGCAG (site ACCTAACCTCT)", "recombinant barcode read abundance (log10)": 1.22}
{"sequence": "ACCTAACCTTGGGTTCTAACCTGTTGCAG (site TCCTAACCTCA)", "recombinant barcode read abundance (log10)": 0.0355}
{"sequence": "ACCTGTCCTTGGGTTCTAACCTGTTGCCT (site ACCTGACCTAG)", "recombinant barcode read abundance (log10)": 0.269}
{"sequence": "ACCTGTCCTTGGGTTCTAACCTGTTGCCT (site ACCTGCCCTAG)", "recombinant barcode read abundance (log10)": 0.0321}
{"sequence": "ACCTGTCCTTGGGTTCTAACCTGTTGCCT (site ACCTGGCCTAG)", "recombinant barcode read abundance (log10)": 0.173}
{"sequence": "ACCTGTCCTTGGGTTCTAACCTGTTGCCT (site ACCTGTCCTAG)", "recombinant barcode read abundance (log10)": 0.986}
{"sequence": "ACCTTAACTTGGGTTCTAACCTGTTGCCT (site ACCTTAACTAG)", "recombinant barcode read abundance (log10)": 0.166}
{"sequence": "ACCTTAACTTGGGTTCTAACCTGTTGCCT (site ATCTCAACTAG)", "recombinant barcode read abundance (log10)": 0}
{"sequence": "ACCTTGCCTTGGGTTCTAACCTGTTGCTA (site ACCTTGCCTTA)", "recombinant barcode read abundance (log10)": 0.478}
{"sequence": "ACCTTGCCTTGGGTTCTAACCTGTTGCTA (site TGGAGAGCTCT)", "recombinant barcode read abundance (log10)": 0.0461}
{"sequence": "ACGAACGCTTGGGTTCTAACCTGTTGCCT (site ACGAACGCTAG)", "recombinant barcode read abundance (log10)": 1.64}
{"sequence": "ACGAACGCTTGGGTTCTAACCTGTTGCCT (site ACGACCGCTAG)", "recombinant barcode read abundance (log10)": 0.344}
{"sequence": "ACGAACGCTTGGGTTCTAACCTGTTGCCT (site ACGAGCGCTAG)", "recombinant barcode read abundance (log10)": 0.085}
{"sequence": "ACGAACGCTTGGGTTCTAACCTGTTGCCT (site ACGATCGCTAG)", "recombinant barcode read abundance (log10)": 0.14}
{"sequence": "ACGAAGCCTTGGGTTCTAACCTGTTGCCT (site ACGAAGCCTAG)", "recombinant barcode read abundance (log10)": 1.35}
{"sequence": "ACGAAGCCTTGGGTTCTAACCTGTTGCCT (site GCGACGCCTAG)", "recombinant barcode read abundance (log10)": 0.19}
{"sequence": "ACGACTCCTTGGGTTCTAACCTGTTGCCT (site ACGACTACTAG)", "recombinant barcode read abundance (log10)": 0.467}
{"sequence": "ACGACTCCTTGGGTTCTAACCTGTTGCCT (site ACGACTCCTAG)", "recombinant barcode read abundance (log10)": 0.618}
{"sequence": "ACGACTCCTTGGGTTCTAACCTGTTGCCT (site ACGACTGCTAG)", "recombinant barcode read abundance (log10)": 0.117}
{"sequence": "ACGACTCCTTGGGTTCTAACCTGTTGCCT (site ACGACTTCTAG)", "recombinant barcode read abundance (log10)": 0.0781}
{"sequence": "ACGAGTCCTTGGGTTCTAACCTGTTGCCT (site ACGAGTCCTAC)", "recombinant barcode read abundance (log10)": 0.112}
{"sequence": "ACGAGTCCTTGGGTTCTAACCTGTTGCCT (site ACGAGTCCTAG)", "recombinant barcode read abundance (log10)": 1.36}
{"sequence": "ACGCACTCTTGGGTTCTAACCTGTTGCCT (site ACGCAATCTAG)", "recombinant barcode read abundance (log10)": 0.02}
{"sequence": "ACGCACTCTTGGGTTCTAACCTGTTGCCT (site ACGCACTCTAG)", "recombinant barcode read abundance (log10)": 0.131}
{"sequence": "ACGCACTCTTGGGTTCTAACCTGTTGCCT (site ACGCAGTCTAG)", "recombinant barcode read abundance (log10)": 0.109}
{"sequence": "ACGCACTCTTGGGTTCTAACCTGTTGCCT (site ACGCATTCTAG)", "recombinant barcode read abundance (log10)": 0.394}
{"sequence": "ACGCATACTTGGGTTCTAACCTGTTGCCT (site ACACATACTAG)", "recombinant barcode read abundance (log10)": 0.196}
{"sequence": "ACGCATACTTGGGTTCTAACCTGTTGCCT (site ACGCATACTAG)", "recombinant barcode read abundance (log10)": 0.0647}
{"sequence": "ACGCATCCTTGGGTTCTAACCTGTTGCCT (site AAGCATCCTAG)", "recombinant barcode read abundance (log10)": 0.0107}
{"sequence": "ACGCATCCTTGGGTTCTAACCTGTTGCCT (site ACGCATCCTAG)", "recombinant barcode read abundance (log10)": 0.0284}
{"sequence": "ACGCATCCTTGGGTTCTAACCTGTTGCCT (site AGGCATCCTAG)", "recombinant barcode read abundance (log10)": 0.0797}
{"sequence": "ACGCATCCTTGGGTTCTAACCTGTTGCCT (site ATGCATCCTAG)", "recombinant barcode read abundance (log10)": 0.11}
{"sequence": "ACGCCCTCTTGGGTTCTAACCTGTTGCCT (site ACGCCCTCTAG)", "recombinant barcode read abundance (log10)": 0.0283}
{"sequence": "ACGCCCTCTTGGGTTCTAACCTGTTGCCT (site GCGCCCTCTAG)", "recombinant barcode read abundance (log10)": 0.302}
{"sequence": "ACGCCTCCTTGGGTTCTAACCTGTTGCCA (site ACCCCTCCTTG)", "recombinant barcode read abundance (log10)": 0.0961}
{"sequence": "ACGCCTCCTTGGGTTCTAACCTGTTGCCA (site ACGCCTCCTTG)", "recombinant barcode read abundance (log10)": 0.371}
{"sequence": "ACGCGAGCTTGGGTTCTAACCTGTTGCAG (site ACGCGAGCTCA)", "recombinant barcode read abundance (log10)": 0.188}
{"sequence": "ACGCGAGCTTGGGTTCTAACCTGTTGCAG (site ACGCGAGCTCC)", "recombinant barcode read abundance (log10)": 0.318}
{"sequence": "ACGCGAGCTTGGGTTCTAACCTGTTGCAG (site ACGCGAGCTCG)", "recombinant barcode read abundance (log10)": 0.192}
{"sequence": "ACGCGAGCTTGGGTTCTAACCTGTTGCAG (site ACGCGAGCTCT)", "recombinant barcode read abundance (log10)": 0.142}
{"sequence": "ACGCGAGCTTGGGTTCTAACCTGTTGCGG (site ACGCGAGCTCA)", "recombinant barcode read abundance (log10)": 0.066}
{"sequence": "ACGCGAGCTTGGGTTCTAACCTGTTGCGG (site ACGCGAGCTCC)", "recombinant barcode read abundance (log10)": 0.954}
{"sequence": "ACGCGAGCTTGGGTTCTAACCTGTTGCGG (site ACGCGAGCTCG)", "recombinant barcode read abundance (log10)": 0.316}
{"sequence": "ACGCGAGCTTGGGTTCTAACCTGTTGCGG (site ACGCGAGCTCT)", "recombinant barcode read abundance (log10)": 0.423}
{"sequence": "ACGCGGACTTGGGTTCTAACCTGTTGCCT (site ACGCCGACTAG)", "recombinant barcode read abundance (log10)": 0}
{"sequence": "ACGCGGACTTGGGTTCTAACCTGTTGCCT (site ACGCGGACTAG)", "recombinant barcode read abundance (log10)": 1.21}
{"sequence": "ACGCGTTCTTGGGTTCTAACCTGTTGCAT (site ACGCGTTCTAT)", "recombinant barcode read abundance (log10)": 0.0272}
{"sequence": "ACGCGTTCTTGGGTTCTAACCTGTTGCAT (site CTAGACCCTCC)", "recombinant barcode read abundance (log10)": 0.271}
{"sequence": "ACGGATCCTTGGGTTCTAACCTGTTGCAT (site ACGGATCCTAT)", "recombinant barcode read abundance (log10)": 2.51}
{"sequence": "ACGGATCCTTGGGTTCTAACCTGTTGCAT (site GTCCTATCTTG)", "recombinant barcode read abundance (log10)": 0.0315}
{"sequence": "ACGGCCTCTTGGGTTCTAACCTGTTGCTT (site ACGGCATCTAG)", "recombinant barcode read abundance (log10)": 0.276}
{"sequence": "ACGGCCTCTTGGGTTCTAACCTGTTGCTT (site ACGGCCTCTAA)", "recombinant barcode read abundance (log10)": 2.63}
{"sequence": "ACGGCGCCTTGGGTTCTAACCTGTTGCCT (site AAGGCGCCTAG)", "recombinant barcode read abundance (log10)": 0.0538}
{"sequence": "ACGGCGCCTTGGGTTCTAACCTGTTGCCT (site ACGGCGCCTAG)", "recombinant barcode read abundance (log10)": 1.12}
{"sequence": "ACGGCGCCTTGGGTTCTAACCTGTTGCCT (site AGGGCGCCTAG)", "recombinant barcode read abundance (log10)": 0.101}
{"sequence": "ACGGCGCCTTGGGTTCTAACCTGTTGCCT (site ATGGCGCCTAG)", "recombinant barcode read abundance (log10)": 0.182}
{"sequence": "ACGGGCTCTTGGGTTCTAACCTGTTGCTC (site ACGGGCTCTGA)", "recombinant barcode read abundance (log10)": 1.53}
{"sequence": "ACGGGCTCTTGGGTTCTAACCTGTTGCTC (site CGACTTACTAT)", "recombinant barcode read abundance (log10)": 0.164}
{"sequence": "ACGGGGTCTTGGGTTCTAACCTGTTGCCT (site ACGGGGTCTAG)", "recombinant barcode read abundance (log10)": 2.64}
{"sequence": "ACGGGGTCTTGGGTTCTAACCTGTTGCCT (site CCGGGGTCTAG)", "recombinant barcode read abundance (log10)": 0.637}
{"sequence": "ACGGGGTCTTGGGTTCTAACCTGTTGCCT (site GCGGGGTCTAG)", "recombinant barcode read abundance (log10)": 0.123}
{"sequence": "ACGGGGTCTTGGGTTCTAACCTGTTGCCT (site TCGGGGTCTAG)", "recombinant barcode read abundance (log10)": 0.416}
{"sequence": "ACGGGTACTTGGGTTCTAACCTGTTGCCT (site ACGGGTACTAG)", "recombinant barcode read abundance (log10)": 1.51}
{"sequence": "ACGGGTACTTGGGTTCTAACCTGTTGCCT (site ACTGGTACTAG)", "recombinant barcode read abundance (log10)": 0.165}
{"sequence": "ACGTAACCTTGGGTTCTAACCTGTTGCCT (site ACGTAACCTAG)", "recombinant barcode read abundance (log10)": 0.0547}
{"sequence": "ACGTAACCTTGGGTTCTAACCTGTTGCCT (site GTAACTACTGA)", "recombinant barcode read abundance (log10)": 0.083}
{"sequence": "ACGTATGCTTGGGTTCTAACCTGTTGCAT (site ACGTATGCTAT)", "recombinant barcode read abundance (log10)": 0.556}
{"sequence": "ACGTATGCTTGGGTTCTAACCTGTTGCAT (site TAAATCACTCG)", "recombinant barcode read abundance (log10)": 0.0674}
{"sequence": "ACGTCTCCTTGGGTTCTAACCTGTTGCTG (site ACGACTCCTCA)", "recombinant barcode read abundance (log10)": 0}
{"sequence": "ACGTCTCCTTGGGTTCTAACCTGTTGCTG (site ACGCCTCCTCA)", "recombinant barcode read abundance (log10)": 0.175}
{"sequence": "ACGTCTCCTTGGGTTCTAACCTGTTGCTG (site ACGGCTCCTCA)", "recombinant barcode read abundance (log10)": 0.0879}
{"sequence": "ACGTCTCCTTGGGTTCTAACCTGTTGCTG (site ACGTCTCCTCA)", "recombinant barcode read abundance (log10)": 0.162}
{"sequence": "ACGTGCTCTTGGGTTCTAACCTGTTGCCT (site AAGTGCTCTAG)", "recombinant barcode read abundance (log10)": 0.503}
{"sequence": "ACGTGCTCTTGGGTTCTAACCTGTTGCCT (site ACGTGCTCTAG)", "recombinant barcode read abundance (log10)": 1.32}
{"sequence": "ACGTGCTCTTGGGTTCTAACCTGTTGCCT (site AGGTGCTCTAG)", "recombinant barcode read abundance (log10)": 0.119}
{"sequence": "ACGTGCTCTTGGGTTCTAACCTGTTGCCT (site ATGTGCTCTAG)", "recombinant barcode read abundance (log10)": 0.246}
